Read-outs that look alike come from different tables or passages of the source.
Legend:
Settings in all cases: in vivo
[1] = test system: tomato plants (Lycopersicon esculentum var. Celebrity Hybrid, NK); assay: ID mitigation of fungicide phytotoxicity: ORBIT with or without sucrose sprayed on potted tomato plants, vigor, leaf distortion and appearance rating
Protocol: In general, tomato plants were contacted with three different treatment formulations: (1) the propiconazole fungicide ORBIT with water and surfactant, (2) a fungicide phytotoxicity reducing formulation according to the subject invention, i.e., ORBIT/water/sucrose/surfactant, and (3) sucrose/water. An untreated control was also evaluated.
1) Nine week old potted tomato plants (Lycopersicon esculentum var. Celebrity Hybrid, NK) 2) Propiconazole 41.8% a.i. (ORBIT) made up in a concentration equivalent to 12 oz per 100 gallons water+Organosilicone Surfactant (SILWET L-77) at 3 oz per 100 gal 3) ORBIT at 12 oz per 100 gallons spray mix+SILWET L-77 at 3 oz per 100 gallons+Sucrose at 25 lbs per 100 gallons 4) Sucrose at 25 lbs per 100 gallons+SILWET L-77 at 3 oz per 100 gallons

[2] = test system: Mung Bean plants (Phaseolus aureus); assay: IB mitigation of bactericide-fungicide phytotoxicity: KOCIDE with or without sucrose sprayed on potted mung bean plants, leaf russeting, vigor and appearance rating
Protocol: In general, mung bean plants were contacted with three different treatment formulations: (1) the copper hydroxide bactericide-fungicide KOCIDE with water and surfactant, (2) a bactericide-fungicide phytotoxicity reducing formulation according to the subject invention, i.e., KOCIDE/water/sucrose/surfactant, and (3) sucrose/water. An untreated control was also evaluated.
1) Three week old potted Mung Bean plants (Phaseolus aureus) 2) Copper Hydroxide 20% a.i. (KOCIDE) made up in a concentration equivalent to 10 lbs per 100 gallons spray mix+Organosilicone Surfactant (SILWET L-77) at 3 oz per 100 gallons 3) KOCIDE at 10 lbs per 100 gallons spray mix+Sucrose at 25 lbs per 100 gallons+SILWET L-77 at 3 oz per 100 gallons 4) Sucrose at 25 lbs per 100 gallons+SILWET L-77 at 3 oz per 100 gallons

[3] = test system: tomato plants (Lycopersicon esculentum var. Celebrity Hybrid, NK); assay: IA mitigation of insecticide phytotoxicity: KRYOCIDE with or without sucrose sprayed on potted tomato plants, vigor and appearance rating
Protocol: In general, tomato plants were contacted with three different treatment formulations: (1) the sodium aluminofluoride insecticide KRYOCIDE with water and surfactant, (2) an insecticide phytotoxicity reducing formulation according to the subject invention, i.e., KRYOCIDE/water/sucrose/surfactant, and (3) sucrose/water. An untreated control was also evaluated.
1) Nine week old potted tomato plants (Lycopersicon esculentum var. Celebrity Hybrid, NK) 2) Sodium Aluminofluoride 96% a.i. (KRYOCIDE) made up in a concentration equivalent to 15 lbs per 100 gallons water+Organosilicone Surfactant (Silwet L-77) at 3 oz per 100 gallons 3) KRYOCIDE at 15 lbs per 100 gallons spray mix+SILWET L-77 at 3 oz per 100 gallons spray mix+Sucrose at 25 lbs per 100 gallons spray mix 4) Sucrose at 25 lbs per 100 gallons spray mix+SILWET L-77 at 3 oz per 100 gallons

[4] = test system: tomato plants (Lycopersicon esculentum var. Celebrity Hybrid, NK)
Protocol: In general, tomato plants were contacted with three different treatment formulations: (1) the clorothalonil fungicide BRAVO WEATHER STIK with water and surfactant, (2) a fungicide phytotoxicity reducing formulation according to the subject invention, i.e., BRAVO WEATHER STIK/water/sucrose/surfactant, and (3) sucrose/water. An untreated control was also evaluated.
1) Seven week old potted tomato plants (Lycopersicon esculentum var. Celebrity Hybrid, NK) 2) Clorothalonil 47% a.i. (BRAVO WEATHER STIK) made up in a concentration equivalent to 2 pints per 100 gallons water+Organosilicone Surfactant (SILWET L-77) at 3 oz per 100 gallons 3) BRAVO WEATHER STIK at 2 pints per 100 gallons spray mix+SILWET L-77 at 3 oz per 100 gallons+Sucrose at 25 lbs per 100 gallons 4) Sucrose at 25 lbs per 100 gallons+SILWET L-77 at 3 oz per 100 gallons

Compound | overall vigor, leaf distortion and appearance, Mean/Statistical Rank [1] [c] | overall vigor, leaf distortion and appearance, Replication 1 [1] | overall vigor, leaf distortion and appearance, Replication 2 [1] | overall vigor, leaf distortion and appearance, Replication 3 [1] | overall vigor, leaf distortion and appearance, Replication 4 [1] | russeting of leaves and overall vigor and appearance, Mean/Statistical Rank [2] [b] | russeting of leaves and overall vigor and appearance, Replication 1 [2] | russeting of leaves and overall vigor and appearance, Replication 2 [2] | russeting of leaves and overall vigor and appearance, Replication 3 [2] | russeting of leaves and overall vigor and appearance, Replication 4 [2] | overall vigor and appearance, Mean/Statistical Rank [3] [b] | overall vigor and appearance, Replication 1 [3] | overall vigor and appearance, Replication 2 [3] | overall vigor and appearance, Replication 3 [3] | overall vigor and appearance, Replication 4 [3] | overall vigor and appearance, Mean/Statistical Rank [4] | overall vigor and appearance, Replication 1 [4] | overall vigor and appearance, Replication 2 [4] | overall vigor and appearance, Replication 3 [4] | overall vigor and appearance, Replication 4 [4]
OC[C@H]1O[C@@](CO)(O[C@H]2O[C@H](CO)[C@@H](O)[C@H](O)[C@H]2O)[C@@H](O)[C@@H]1O [Sucrose] | 10.00 | 10 | 10 | 10 | 10 | 10.00 | 10 | 10 | 10 | 10 | 9.75 | 10 | 9 | 10 | 10 | 10.00 b | 10 | 10 | 10 | 10
Clorothalonil [BRAVO WS] | – | – | – | – | – | – | – | – | – | – | – | – | – | – | – | 5.25 a | 5 | 5 | 6 | 5
